Data published in publication PMC11547576, “Identification of a New Promising BAG3 Modulator Featuring the Imidazopyridine Scaffold” (Molecules, 2024).

Key:
caspase 9 = experiment: Caspase 9 determination by flow cytometry; assay type: cell-based, human; settings: HeLa cells, 72 h, 50, 30 and 20 µM, vs control
Experimental: Furthermore, we investigated the expressions of caspases, key mediators of programmed cell death, in HeLa cells treated with compound 10 at the same concentrations used in the previous assays. […] To further confirm the pro-apoptotic mechanism induced by compound 10, Western blotting was performed to measure the expression and cleavage of caspase 3 [38, 39].
HeLa cells were seeded into 6-well plates (2.5 × 10^5 cells/well) and allowed to adhere for 24 h. The cells were then treated for 72 h with compound 10 at concentrations of 20, 30, and 50 µM, as well as with 0.1% DMSO negative (control), to assess caspase 3 and caspase 9 levels. After treatment, cells were collected, washed with PBS, and incubated at 4 °C first with a fixing buffer (containing 1% formaldehyde and 1% FBS in PBS) for 20 min, followed by permeabilization with fix perm solution (fixing buffer containing 0.1% Triton X-100) for 30 min. Next, the cells were incubated with anti-caspase 3 (1:500; SC-7272, Santa Cruz, CA, USA) and anti-caspase 9 (1:50; BS-0049R, Bioss Antibodies, Woburn, MA, USA) antibodies for 30 min at 4 °C. […] Cell fluorescence was then evaluated using a fluorescence-activated cell sorter (FACSscan, Becton Dickinson, Milan, Italy) and analyzed with Cell Quest software (4.0, Becton Dickinson, North Ryde, Australia). […]

BAG3-BD = biological target: T1, BAG3-BD (Homo sapiens, UniProt O95817); experiment: SPR assay on BAG domain of BAG3 (BAG3-BD); assay type: binding; settings: Biacore T200, 0 to 100 µM, 25 °C, 1:1 interaction model, read-out: BAG DOMAIN KD (µM) ± SD
T1 construct: the BAG3 domain (BAG3-BD) was procured from ARETA International S.r.l; purchased ARETA International S.r.l; (Gerenzano, Italy)
T1 sequence (O95817 421-498 limits assumed): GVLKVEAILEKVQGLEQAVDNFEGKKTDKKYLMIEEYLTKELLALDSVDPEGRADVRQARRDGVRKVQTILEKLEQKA
Experimental: In this study, we employed SPR experiments to evaluate the interactions between synthesized compounds (1–14) and both the full-length BAG3 protein and its BAG domain. Only the compounds that successfully bound to the full-length BAG3 protein were tested for their interaction with the BAG domain. Protein immobilization was achieved using the amide coupling method, and the compounds were tested at ten different concentrations, ranging from 0 to 100 µM. A known binder of BAG3-BD, LK4 ((Z)-ethyl 2-(5-(3,4-dihydroxybenzylidene)-2,4-dioxothiazolidin-3yl)acetate), was used as a positive control. […] Compound 14 also bound the target but with slightly higher KD values, still within the micromolar range. The three identified compounds were further investigated to understand whether this binding induced an effect on BAG3 protein functions. The KD values reported in Table 1 for the known inhibitor LK4 differ from those in previous studies due to the use of a newer-generation instrument for the SPR experiments. The earlier experiments utilized the Biacore 3000, whereas the current study employed the Biacore T200. While ligand binding was confirmed in both sets of experiments, the slightly different KD values are attributed to the enhanced sensitivity of the Biacore T200.
Recombinant human BAG3 protein (Bcl2-associated athanogene 3) was sourced from Novus Biologicals (Littleton, CO, USA), while the BAG3 domain (BAG3-BD) was procured from ARETA International S.r.l. (Gerenzano, Italy). We utilized (Z)-ethyl 2-(5-(3,4-dihydroxybenzylidene)-2,4-dioxothiazolidin-3-yl)acetate (LK4), a known BAG3 inhibitor previously identified by our group. Surface Plasmon Resonance (SPR) spectroscopy was employed to assess the affinity of synthesized molecules for BAG3 and BAG-BD using a Biacore T200 optical biosensor equipped with CM5 sensor chips (Cytiva, Marlborough, MA, USA). BAG3 and BAG-BD were immobilized on the CM5 sensor chip using standard amine-coupling protocols. BAG3 protein (0.067 μg/μL in 10 mM CH3COONa, pH 4.5) was immobilized at a flow rate of 10 μL/min, resulting in a density of 14 kRU. The BAG3 domain (0.38 μg/μL in 10 mM CH3COONa, pH 4.5) was immobilized under similar conditions, achieving a density of 4 kRU. […]
Compounds 1–14 and LK4 were dissolved to 10 mM in 100% DMSO and then diluted 1:20 (v/v) in PBS-P buffer (0.2 M phosphate buffer, 27 mM KCl, 1.37 M NaCl, 0.5% surfactant P20) to achieve a final DMSO concentration of 5.0%. […] Changes in mass, reflected as resonance units (RU), were recorded to determine binding responses. KD values were calculated using Biaevaluation software 3.2 by globally fitting the double-referenced association and dissociation data to a 1:1 interaction model. […]

Structure (SMILES): CC(C)Nc1c(-c2ccccc2Br)nc2ccc(Cl)cn12 [Compound 10, 2-(2-bromophenyl)-6-chloro-N-isopropylimidazo[1,2-a]pyridin-3-amine]
- activation of caspase 9 (caspase 9): pronounced, dose-dependent activation
- Kd (BAG3-BD): 15.7 ± 1.44 µM
